Experimental data: ChEMBL document CHEMBL1909046, “DrugMatrix in vitro pharmacology data”
Where a SMILES comes first, the peptide text is derived from it. Bridges are numbered along the chain shown (N, C = ends). [ ]: non-standard residue; d: D form. The star is where a group is joined. Ileψ(thiazoline)Cys = CC[C@H](C)[C@H](N)C1=N[C@H](C(=O)*)CS1; dOrn = NCCC[C@@H](N)C(=O)O

Experiments:
[1] = DRUGMATRIX: Serotonin (5-Hydroxytryptamine) 5-HT3 radioligand binding (ligand: [3H] GR-65630); assay type: cell membranes, Membrane; conditions: hek293; Not Active = under 50% inhibition at 10 µM
[2] = target: T1, Neuropeptide Y receptor type 1 (Homo sapiens, UniProt P25929); assay type: cell membranes, Membrane; conditions: sk-n-mc; note: in other assays of this panel Not Active means under 50% inhibition at 10 µM
T1 sequence (P25929 whole entry): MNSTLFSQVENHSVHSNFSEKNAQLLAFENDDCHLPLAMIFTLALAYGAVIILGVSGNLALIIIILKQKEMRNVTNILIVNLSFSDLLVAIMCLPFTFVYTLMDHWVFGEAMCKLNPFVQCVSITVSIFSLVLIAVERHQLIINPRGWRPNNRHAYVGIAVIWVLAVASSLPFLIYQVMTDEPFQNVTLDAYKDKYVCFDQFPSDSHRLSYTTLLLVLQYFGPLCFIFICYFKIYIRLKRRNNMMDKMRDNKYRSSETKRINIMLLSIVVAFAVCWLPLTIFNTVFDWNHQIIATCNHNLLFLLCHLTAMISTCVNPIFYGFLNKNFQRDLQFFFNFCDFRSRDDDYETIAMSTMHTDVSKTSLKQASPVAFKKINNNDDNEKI

Adenosine receptor A3 = target: T2, Adenosine receptor A3 (Homo sapiens, UniProt P0DMS8); assay type: cell membranes, CHO-K1, Membrane; conditions: cho-k1;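 note: radioligand binding assay with AB-MECA serving as the labeled ligand; in other assays of this panel Not Active means under 50% inhibition at 10 µM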
T2 sequence (P0DMS8 whole entry): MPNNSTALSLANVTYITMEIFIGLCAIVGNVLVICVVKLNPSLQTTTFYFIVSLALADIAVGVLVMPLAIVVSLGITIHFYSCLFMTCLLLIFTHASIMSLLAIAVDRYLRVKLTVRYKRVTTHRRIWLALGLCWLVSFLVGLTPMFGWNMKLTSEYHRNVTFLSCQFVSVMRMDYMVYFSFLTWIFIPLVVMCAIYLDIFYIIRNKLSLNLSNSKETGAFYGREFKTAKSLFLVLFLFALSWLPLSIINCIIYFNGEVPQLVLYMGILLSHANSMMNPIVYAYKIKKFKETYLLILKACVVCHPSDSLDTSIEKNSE

[3] = target: T3, Vasoactive intestinal polypeptide receptor 1 (Homo sapiens, UniProt P32241); assay type: cell membranes, Membrane; conditions: ht-29; note: in other assays of this panel Not Active means under 50% inhibition at 10 µM
T3 sequence (P32241 whole entry): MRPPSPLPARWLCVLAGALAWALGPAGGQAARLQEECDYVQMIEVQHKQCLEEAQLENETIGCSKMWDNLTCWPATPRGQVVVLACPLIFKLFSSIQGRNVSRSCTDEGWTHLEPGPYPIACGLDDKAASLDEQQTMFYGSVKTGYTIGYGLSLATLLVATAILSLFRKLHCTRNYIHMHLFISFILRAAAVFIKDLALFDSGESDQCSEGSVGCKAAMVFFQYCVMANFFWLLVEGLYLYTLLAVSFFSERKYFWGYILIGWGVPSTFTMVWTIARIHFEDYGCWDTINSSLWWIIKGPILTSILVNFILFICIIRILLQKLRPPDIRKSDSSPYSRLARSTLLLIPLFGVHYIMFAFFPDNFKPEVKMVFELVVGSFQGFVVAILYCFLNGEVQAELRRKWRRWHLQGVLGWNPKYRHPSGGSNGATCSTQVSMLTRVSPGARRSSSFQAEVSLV

Substance-K receptor = target: T4, Substance-K receptor (Homo sapiens, UniProt P21452); assay type: cell membranes, CHO, Membrane; conditions: cho; note: in other assays of this panel Not Active means under 50% inhibition at 10 µM
T4 sequence (P21452 whole entry): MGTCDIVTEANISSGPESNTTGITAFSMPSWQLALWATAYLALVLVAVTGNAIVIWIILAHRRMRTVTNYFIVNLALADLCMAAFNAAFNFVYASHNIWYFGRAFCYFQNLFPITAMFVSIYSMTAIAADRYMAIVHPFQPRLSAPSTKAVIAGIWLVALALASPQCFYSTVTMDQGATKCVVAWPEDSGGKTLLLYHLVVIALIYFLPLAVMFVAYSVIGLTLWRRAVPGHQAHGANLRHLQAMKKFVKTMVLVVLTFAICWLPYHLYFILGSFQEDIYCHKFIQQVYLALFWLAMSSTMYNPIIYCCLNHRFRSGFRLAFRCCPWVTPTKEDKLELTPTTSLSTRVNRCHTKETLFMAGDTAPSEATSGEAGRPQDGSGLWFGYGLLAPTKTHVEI

[4] = DRUGMATRIX: Platelet-Derived Growth Factor (PDGF) radioligand binding (ligand: [125I] PDGF); assay type: cell-based; conditions: nih3t3; Not Active = under 50% inhibition at 10 µM
[5] = DRUGMATRIX: Calcium Channel Type L, Phenylalkylamine radioligand binding (ligand: [3H] (-)-Desmethoxyverapamil (D-888)); assay type: cell membranes, Rattus norvegicus, Wistar, Brain, Membrane; conditions: Not Active = under 50% inhibition at 10 µM
[6] = DRUGMATRIX: Phosphodiesterase PDE4 enzyme inhibition (substrate: [3H]cAMP + cAMP); conditions: u-937; Not Active = under 50% inhibition at 10 µM
[7] = target: T5, 5-hydroxytryptamine receptor 1A (Rattus norvegicus, UniProt P19327); assay type: cell membranes, CHO-K1, Membrane; conditions: cho-k1; note: in other assays of this panel Not Active means under 50% inhibition at 10 µM
T5 sequence (P19327 whole entry): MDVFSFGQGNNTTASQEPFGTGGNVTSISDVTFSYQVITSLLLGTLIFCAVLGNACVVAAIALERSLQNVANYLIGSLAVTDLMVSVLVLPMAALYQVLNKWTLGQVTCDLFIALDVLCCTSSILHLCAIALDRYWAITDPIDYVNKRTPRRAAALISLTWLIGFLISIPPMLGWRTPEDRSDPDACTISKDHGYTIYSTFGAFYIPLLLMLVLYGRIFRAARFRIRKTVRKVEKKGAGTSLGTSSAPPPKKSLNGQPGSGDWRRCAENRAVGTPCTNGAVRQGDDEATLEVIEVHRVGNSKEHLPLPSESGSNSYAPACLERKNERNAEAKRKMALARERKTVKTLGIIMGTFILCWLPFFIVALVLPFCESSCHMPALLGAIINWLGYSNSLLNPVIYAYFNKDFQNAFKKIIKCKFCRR

[8] = target: T6, C-X-C chemokine receptor type 2 (Homo sapiens, UniProt P25025); assay type: cell membranes, Membrane; conditions: cho-k1; note: in other assays of this panel Not Active means under 50% inhibition at 10 µM
T6 sequence (P25025 whole entry): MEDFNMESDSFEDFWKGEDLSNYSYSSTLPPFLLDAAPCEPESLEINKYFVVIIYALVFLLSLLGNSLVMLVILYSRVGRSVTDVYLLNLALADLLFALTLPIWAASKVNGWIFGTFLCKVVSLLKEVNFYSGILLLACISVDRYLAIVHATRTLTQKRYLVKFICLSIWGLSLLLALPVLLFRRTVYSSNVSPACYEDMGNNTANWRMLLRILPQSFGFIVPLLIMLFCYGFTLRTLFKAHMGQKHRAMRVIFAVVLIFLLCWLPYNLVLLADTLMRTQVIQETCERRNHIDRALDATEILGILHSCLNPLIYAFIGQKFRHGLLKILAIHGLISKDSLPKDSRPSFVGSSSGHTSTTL

Structure (SMILES)	IC50 [1]	Ki [1]	IC50 [2]	IC50 (Adenosine receptor A3)	IC50 [3]	IC50 (Substance-K receptor)	IC50 [4]	Ki [4]	IC50 ([5]; read-out: IC50) [nM]	Ki ([5]; read-out: Ki) [nM]	IC50 [6]	Ki [6]	IC50 [7]	IC50 [8]	IC50 [5]	Ki [5]
COc1ccc([C@@H]2Sc3ccccc3N(CCN(C)C)C(=O)[C@@H]2OC(C)=O)cc1 [DILTIAZEM]	Not Active	Not Active	Not Active	Not Active	Not Active	Not Active	Not Active	Not Active	630	612	Not Active	Not Active	Not Active	Not Active	–	–
CC(=O)[C@@]1(O)CC[C@H]2[C@@H]3C[C@H](C)C4=CC(=O)C=C[C@]4(C)[C@@]3(F)[C@@H](O)C[C@@]21C [FLUOROMETHOLONE]	Not Active	Not Active	Not Active	Not Active	Not Active	Not Active	Not Active	Not Active	–	–	Not Active	Not Active	Not Active	Not Active	Not Active	Not Active
O=c1[nH]cc(F)c(=O)[nH]1 [FLUOROURACIL]	Not Active	Not Active	Not Active	Not Active	Not Active	Not Active	Not Active	Not Active	–	–	Not Active	Not Active	Not Active	Not Active	Not Active	Not Active
O=C(O)c1cn(C2CC2)c2cc(N3CCNCC3)c(F)cc2c1=O [CIPROFLOXACIN]	Not Active	Not Active	Not Active	Not Active	Not Active	Not Active	Not Active	Not Active	–	–	Not Active	Not Active	Not Active	Not Active	Not Active	Not Active
CC(C)(Oc1ccc(CCNC(=O)c2ccc(Cl)cc2)cc1)C(=O)O [BEZAFIBRATE]	Not Active	Not Active	Not Active	Not Active	Not Active	Not Active	Not Active	Not Active	–	–	Not Active	Not Active	Not Active	Not Active	Not Active	Not Active
CC[C@H](C)[C@H](N)C1=N[C@H](C(=O)N[C@@H](CC(C)C)C(=O)N[C@H](CCC(=O)O)C(=O)N[C@H](C(=O)N[C@H]2CCCCNC(=O)[C@H](CC(N)=O)NC(=O)[C@@H](CC(=O)O)NC(=O)[C@H](Cc3cnc[nH]3)NC(=O)[C@@H](Cc3ccccc3)NC(=O)[C@H]([C@@H](C)CC)NC(=O)[C@@H](CCCN)NC2=O)[C@@H](C)CC)CS1 [BACITRACIN] ({Ileψ(thiazoline)Cys}-L[dE]IK[dOrn]I[dF]H[dD]N; lactam 4-C)	Not Active	Not Active	Not Active	Not Active	Not Active	Not Active	Not Active	Not Active	–	–	Not Active	Not Active	Not Active	Not Active	Not Active	Not Active
Nc1nc(=O)[nH]cc1F [FLUCYTOSINE]	Not Active	Not Active	Not Active	Not Active	Not Active	Not Active	Not Active	Not Active	–	–	Not Active	Not Active	Not Active	Not Active	Not Active	Not Active
O=C1OCCN1/N=C/c1ccc([N+](=O)[O-])o1 [FURAZOLIDONE]	Not Active	Not Active	Not Active	Not Active	Not Active	Not Active	Not Active	Not Active	–	–	Not Active	Not Active	Not Active	Not Active	Not Active	Not Active
CC1(C)S[C@@H]2[C@H](NC(=O)[C@H](NC(=O)N3CCNC3=O)c3ccccc3)C(=O)N2[C@H]1C(=O)O [AZLOCILLIN]	Not Active	Not Active	Not Active	Not Active	Not Active	Not Active	Not Active	Not Active	–	–	Not Active	Not Active	Not Active	Not Active	Not Active	Not Active
